Assay [1] has as its system KB cells.
Assay [2] relates to subcutaneous KB tumor. Description: In vivo PDT efficacy on growth of subcutaneous KB tumor xenograft in nude mice. Conditions: 50 nmol dose, laser 75 mW/cm^2, 137 J/cm^2, 38 min, 3 h after injection. How it is done: The growth of the tumor was monitored (images were taken) and tumor volume was measured using caliper.
In the following examples, the in vivo efficacy of the compounds is determined using KB tumor cell xenograft in nude mice. In these studies, KB cells were implanted subcutaneously and growth of the tumors was monitored. […] Moreover, once tumors grow to […], the compounds were injected via tail vein. […] In vivo efficacy of BPheid-a was evaluated by monitoring reduction of tumor volume.
KB cells that overexpressed folate receptor were implanted subcutaneously into female nude mice and allowed to grow to ˜50 mm^3 prior to initiation of treatment with 50 nmol of BPheid-a (1). […] In vivo efficacy of BPheid-a was evaluated by monitoring reduction of tumor volume.

Where [3] appears, read: Table 2, mitochondrial-targeted modified PDT agents, free drugs in DMSO, 2 h incubation, laser 32 min, then 24 h.
[4] abbreviates: Table 3, nucleus-targeted modified PDT agents, free drugs in DMSO, 2 h incubation, laser 32 min, then 24 h.
Where [5] appears, read: Table 8, folate-targeted releasable visudyne conjugates.

pEC50, pIC50: −log10 of the molar value. Entries after “also recorded” stand apart in the source; their conditions may differ. Where two headings read alike, the source gives them in different places.

For `CC[C@H]1c2cc3[nH]c4c(c3C)C(=O)C(C(=O)OC)c4c3nc(cc4[nH]c(cc(n2)[C@@H]1C)c(C(C)=O)c4C)[C@@H](C)[C@@H]3CCC(=O)N[C@@H](CCC(=O)NC1C(O)OC(CO)C(O)C1O)C(=O)O` (stereo partly drawn) [Compound 19], in assay [1] (setting [3]), the pEC50 – broadly, the EC50 on a negative log10 scale, so that one unit is a factor of ten – was 6.26. With `CC[C@H]1c2cc3[nH]c4c(c3C)C(=O)C(C(=O)OC)c4c3nc(cc4[nH]c(cc(n2)[C@@H]1C)c(C(C)=O)c4C)[C@@H](C)[C@@H]3CCC(=O)NCCSSC[C@H](NC(=O)[C@H](CC(=O)NCCS(=O)(=O)O)NC(=O)CC[C@H](NC(=O)c1ccc(NCc2cnc3nc(N)[nH]c(=O)c3n2)cc1)C(=O)O)C(=O)O` (stereo partly drawn) [Compound 64], in assay [2], the “Effect on growth of subcutaneous KB tumor, in words” value (shortened to “Effect on growth”) was “completely cure the tumor and showed tumor regression for 2 weeks”.

As to `CC[C@@H]1c2cc3[nH]c4c(c3C)C(=O)C(C(=O)OC)c4c3nc(cc4[nH]c(cc(n2)[C@H]1C)c(C(C)=O)c4C)[C@H](C)[C@H]3CCC(=O)NCCC[C@@H](C(=O)NNC(=O)OCCSSC[C@H](NC(=O)[C@H](CC(=O)NCCS(=O)(=O)O)NC(=O)CC[C@H](NC(=O)c1ccc(NCc2cnc3nc(N)[nH]c(=O)c3n2)cc1)C(=O)O)C(=O)O)[N+](C)(C)C` (stereo partly drawn) [Compound 89a], the “Effect on growth” value in assay [2] is “completely reduced the tumor”. Further, the pEC50 in assay [1] (2 h) is 8.43. Regarding `CC[C@H]1c2cc3[nH]c4c(c3C)C(=O)C(C(=O)OC)c4c3nc(cc4[nH]c(cc(n2)[C@@H]1C)c(C(C)=O)c4C)[C@@H](C)[C@@H]3CCC(=O)NCCCC(C(=O)NCCSSC[C@H](NC(=O)[C@H](CC(=O)NCCS(=O)(=O)O)NC(=O)CC[C@H](NC(=O)c1ccc(NCc2cnc3nc(N)[nH]c(=O)c3n2)cc1)C(=O)O)C(=O)O)[N+](C)(C)C` (stereo partly drawn) [Compound 100], in assay [2], the “Effect on growth” value is “completely cure the tumor and showed tumor regression for 2 weeks; also recorded: completely cured with no recurrence during the monitored time (2 weeks)”. Besides, the pEC50 in assay [1] (2 h) is 7.89. As for `CC[C@H]1c2cc3[nH]c(c(CC(=O)OC)c4nc(cc5[nH]c(cc(n2)[C@@H]1C)c(C(C)=O)c5C)[C@@H](C)[C@@H]4CCC(=O)NNC(=O)OCCSSC[C@H](NC(=O)CCOCCOCCOCCOCCOCCOCCOCCOCCNC(=O)CC[C@H](NC(=O)c1ccc(NCc2cnc4nc(N)[nH]c(=O)c4n2)cc1)C(=O)O)C(=O)O)c(C(=O)NCCOCCOCCO)c3C` [Compound 88a], the “Activity class on KB cancer cells in culture (active / highly active)” value in assay [1] is on record as “active”. In assay [1] (2 h), the pEC50 is 7.46. Molecule `CC[C@H]1c2cc3[nH]c4c(c3C)C(=O)C(C(=O)OC)c4c3nc(cc4[nH]c(cc(n2)[C@@H]1C)c(C(C)=O)c4C)[C@@H](C)[C@@H]3CCC(=O)NNC(=O)OCCSSC[C@H](NC(=O)CCOCCOCCOCCOCCOCCOCCOCCOCCNC(=O)CC[C@H](NC(=O)c1ccc(NCc2cnc3nc(N)[nH]c(=O)c3n2)cc1)C(=O)O)C(=O)O` (single isomer, unassigned) [Compound 76d] gave a pEC50 in assay [1] (2 h) of 6.47. For `CC[C@H]1c2cc3[nH]c4c(c3C)C(=O)C(C(=O)OC)c4c3nc(cc4[nH]c(cc(n2)[C@@H]1C)c(C(C)=O)c4C)[C@@H](C)[C@@H]3CCC(=O)NCCC[C@@H](C(=O)O)[N+](C)(C)C` (stereo partly drawn) [Compound 12b], the negative logarithm of the EC50 (pEC50) in assay [1] (setting [3]) was 7.81. For `CC[C@H]1c2cc3[nH]c4c(c3C)C(=O)C(C(=O)OC)c4c3nc(cc4[nH]c(cc(n2)[C@@H]1C)c(C(C)=O)c4C)[C@@H](C)[C@@H]3CCC(=O)NC(Cc1ccc(N(CCCl)CCCl)cc1)C(=O)O` (stereo partly drawn) [Compound 41], the pIC50 (usually the negative decadic logarithm of the IC50, by convention in mol/L) in assay [1] (setting [4]) is 7.17.

In assay [1] (2 h), `CC[C@H]1c2cc3[nH]c4c(c3C)C(=O)C(C(=O)OC)c4c3nc(cc4[nH]c(cc(n2)[C@@H]1C)c(C(C)=O)c4C)[C@@H](C)[C@@H]3CCC(=O)NCCC[C@H](NC(=O)CC[P+](c1ccccc1)(c1ccccc1)c1ccccc1)C(=O)NCCSSC[C@H](NC(=O)[C@H](CC(=O)NCCS(=O)(=O)O)NC(=O)CC[C@H](NC(=O)c1ccc(NCc2cnc3nc(N)[nH]c(=O)c3n2)cc1)C(=O)O)C(=O)O` (stereo partly drawn) [Compound 99] had a pEC50 of 8.28. Consider `C=CC1=C(C)c2cc3[nH]c(cc4nc(cc5[nH]c(cc1n2)c(C)c5CCC(=O)NNC(=O)OCCSSC[C@H](NC(=O)[C@H](CCCNC(=N)N)NC(=O)C[C@@H](NC(=O)[C@H](CCCNC(=N)N)NC(=O)CC[C@H](NC(=O)c1ccc(NCc2cnc5nc(N)[nH]c(=O)c5n2)cc1)C(=O)O)C(=O)O)C(=O)O)C(CCC(=O)OC)=C4C)[C@]1(C)C3=CC=C(C(=O)OC)[C@@H]1C(=O)OC` [Compound 85], for which the “Activity on KB cancer cells in culture, in words” value in assay [1] was “not active”. In addition, the EC50 entry in assay [1] (setting [5]) is given as “Not active*”. For the molecule `C=CC1=C(C)c2cc3[nH]c(cc4nc(cc5[nH]c(cc1n2)c(C)c5CCC(=O)OC)C(CCC(=O)NNC(=O)OCCSSCC(NC(=O)c1ccc(NCc2cnc5nc(N)[nH]c(=O)c5n2)cc1)C(=O)O)=C4C)[C@@]1(C)C3=CC=C(C(=O)OC)[C@H]1C(=O)OC` (stereo partly drawn) [Compound 81], in assay [1], the “Activity on KB cancer cells in culture, in words” value is listed as “not active”. The EC50 result in assay [1] (setting [5]) was “Not active*”. The molecule `CC[C@H]1c2cc3[nH]c4c(c3C)C(=O)C(C(=O)OC)c4c3nc(cc4[nH]c(cc(n2)[C@@H]1C)c(C(C)=O)c4C)[C@@H](C)[C@@H]3CCC(=O)N[C@@H](CCC(=O)NCCS(=O)(=O)O)C(=O)NCCNC(=O)OCCSSC[C@H](NC(=O)[C@H](CC(=O)NCCS(=O)(=O)O)NC(=O)CC[C@H](NC(=O)c1ccc(NCc2cnc3nc(N)[nH]c(=O)c3n2)cc1)C(=O)O)C(=O)O` (stereo partly drawn) [Compound 119] gave a pEC50 in assay [1] (2 h) of 6.27.

Turning to `CC[C@H]1c2cc3[nH]c4c(c3C)C(=O)C(C(=O)OC)c4c3nc(cc4[nH]c(cc(n2)[C@@H]1C)c(C(C)=O)c4C)[C@@H](C)[C@@H]3CCC(=O)N[C@@H](CC(=O)NCCS(=O)(=O)O)C(=O)O` (stereo partly drawn) [Compound 40], the pIC50 in assay [1] (setting [4]) was 5.39.

For `CC[C@H]1c2cc3[nH]c(c(CC(=O)OC)c4nc(cc5[nH]c(cc(n2)[C@@H]1C)c(C(C)=O)c5C)[C@@H](C)[C@@H]4CCC(=O)NNC(=O)OCCSSC[C@H](NC(=O)CCOCCOCCOCCOCCOCCOCCNC(=O)CC[C@H](NC(=O)c1ccc(NCc2cnc4nc(N)[nH]c(=O)c4n2)cc1)C(=O)O)C(=O)O)c(C(=O)N[N+](C)(C)C)c3C` [Compound 87b], the pEC50 in assay [1] (2 h) is 5.22. Take `CC[C@H]1c2cc3[nH]c4c(c3C)C(=O)C(C(=O)OC)c4c3nc(cc4[nH]c(cc(n2)[C@@H]1C)c(C(C)=O)c4C)[C@@H](C)[C@@H]3CCC(=O)NCCNC(=O)OCCSSC[C@H](NC(=O)[C@H](CC(=O)NCCS(=O)(=O)O)NC(=O)CC[C@H](NC(=O)c1ccc(NCc2cnc3nc(N)[nH]c(=O)c3n2)cc1)C(=O)O)C(=O)O` (stereo partly drawn) [Compound 65c]: the pEC50 in assay [1] (2 h) was 7.94. Molecule `CC[C@H]1c2cc3[nH]c4c(c3C)C(=O)C(C(=O)OC)c4c3nc(cc4[nH]c(cc(n2)[C@@H]1C)c(C(C)=O)c4C)[C@@H](C)[C@@H]3CCC(=O)NCCCC(NC(=O)c1ccc(N(C)Cc2cnc3nc(N)nc(N)c3n2)cc1)C(=O)NNC(=O)OCCSSC[C@H](NC(=O)[C@H](CC(=O)NCCS(=O)(=O)O)NC(=O)CC[C@H](NC(=O)c1ccc(NCc2cnc3nc(N)[nH]c(=O)c3n2)cc1)C(=O)O)C(=O)O` (stereo partly drawn) [Compound 117] showed a pEC50 in assay [1] (2 h) of 5.55. On to `Oc1cccc(-c2c3nc(c(-c4cccc(O)c4)c4ccc([nH]4)c(-c4cccc(O)c4)c4nc(c(-c5cccc(O)c5)c5ccc2[nH]5)CC4)C=C3)c1` [Compound 6, Foscan, reference compound], for which the EC50 entry in assay [1] (Table 1, non-targeted PDT agents, free drugs in DMSO, 2 h incubation, laser 6 mW/cm^2, 12 J/cm^2, 32 min, then 24 h) was “Not active”.

Molecule `CC[C@H]1c2cc3[nH]c(c(CC(=O)OC)c4nc(cc5[nH]c(cc(n2)[C@@H]1C)c(C(C)=O)c5C)[C@@H](C)[C@@H]4CCC(=O)NCCSSC[C@H](NC(=O)[C@H](CC(=O)NCCS(=O)(=O)O)NC(=O)CC[C@H](NC(=O)c1ccc(NCc2cnc4nc(N)[nH]c(=O)c4n2)cc1)C(=O)O)C(=O)O)c(C(=O)N[N+](C)(C)C)c3C` [Compound 101] had a pEC50 in assay [1] (2 h) of 6.80.

`CC[C@H]1c2cc3[nH]c4c(c3C)C(=O)C(C(=O)OC)c4c3nc(cc4[nH]c(cc(n2)[C@@H]1C)c(C(C)=O)c4C)[C@@H](C)[C@@H]3CCC(=O)N[C@@H](CC(=O)N[N+](C)(C)C)C(=O)NNC(=O)OCCSSC[C@H](NC(=O)C[C@H](NC(=O)CC[C@H](NC(=O)c1ccc(NCc2cnc3nc(N)[nH]c(=O)c3n2)cc1)C(=O)O)C(=O)NCCS(=O)(=O)O)C(=O)O` (stereo partly drawn) [Compound 95a] gave a pEC50 in assay [1] (2 h) of 6.78.

On to `CC[C@H]1C2=Cc3c(C)c(C(=O)NNC(=O)Nc4cccc(S(=O)(=O)O)c4)c4[n]3[Pd][n]3c(c(C)c(C(C)=O)c3=CC(=N2)[C@@H]1C)=CC1=NC(=C4CC(=O)OC)[C@@H](CCC(=O)O)[C@@H]1C` [Compound 39], for which, in assay [1] (setting [4]), the IC50 result is “Not active*”. In turn, `CC[C@H]1c2cc3[nH]c4c(c3C)C(=O)C(C(=O)OC)c4c3nc(cc4[nH]c(cc(n2)[C@@H]1C)c(C(C)=O)c4C)[C@@H](C)[C@@H]3CCC(=O)NCCSSC[C@H](NC(=O)[C@H](CC(=O)NCCS(=O)(=O)O)NC(=O)[C@H](CC(=O)NCCS(=O)(=O)O)NC(=O)CC[C@H](NC(=O)c1ccc(NCc2cnc3nc(N)[nH]c(=O)c3n2)cc1)C(=O)O)C(=O)O` (stereo partly drawn) [Compound 105] had a pEC50 in assay [1] (2 h) of 7.34. As to `CC[C@H]1c2cc3[nH]c4c(c3C)C(=O)C(C(=O)OC)c4c3nc(cc4[nH]c(cc(n2)[C@@H]1C)c(C(C)=O)c4C)[C@@H](C)[C@@H]3CCC(=O)NCCC[C@@H](C(=O)OC(C)(C)C)[N+](C)(C)C` (stereo partly drawn) [Compound 11b], in assay [1] (setting [3]), the pEC50 was 7.64.

Source of the values: patent US12144874B2, “Synthesis and composition of photodynamic therapeutic agents for the targeted treatment of cancer” (On Target Laboratories, LLC, priority 2015, dated 2024).
